Activity calls are given as the source filed them. The calls are words filed in the database; no cut-off is given here.
Columns and labels:
[1] = system: Candida albicans; assay: Antifungal activity against Candida albicans CA5 by broth dilution method; type: functional
[2] = organism: Danio rerio; assay: Toxicity against zebrafish embryo assessed as growth retardation at 10 ug/ml measured at 96 hrs post fertilization by inverted microscopic analysis; type: organism-based; details: in vivo
[3] = organism: Danio rerio; assay: Toxicity against zebrafish embryo assessed as normal embryos at 5 ug/ml measured at 96 hrs post fertilization by inverted microscopic analysis; type: organism-based; details: in vivo
[4] = system: Danio rerio; assay: Toxicity against zebrafish embryo assessed as pericardial edema at 5 ug/ml measured at 96 hrs post fertilization by inverted microscopic analysis; type: organism-based; details: in vivo
[5] = organism: Danio rerio; assay: Toxicity against zebrafish embryo assessed as effect on tail tip at 5 ug/ml measured at 96 hrs post fertilization by inverted microscopic analysis; type: organism-based; details: in vivo
[6] = organism: Danio rerio; assay: Toxicity against zebrafish embryo assessed as effect on eyes at 10 ug/ml measured at 96 hrs post fertilization by inverted microscopic analysis; type: organism-based; details: in vivo
[7] = organism: Danio rerio; assay: Toxicity against zebrafish embryo assessed as normal embryos at 25 ug/ml measured at 96 hrs post fertilization by inverted microscopic analysis; type: organism-based; details: in vivo
[8] = organism: Danio rerio; assay: Toxicity against zebrafish embryo assessed as effect on blood circulation at 10 ug/ml measured at 96 hrs post fertilization by inverted microscopic analysis; type: organism-based; details: in vivo
[9] = organism: Danio rerio; assay: Toxicity against zebrafish embryo assessed as effect on eyes at 2.5 ug/ml measured at 96 hrs post fertilization by inverted microscopic analysis; type: organism-based; details: in vivo
[10] = organism: Danio rerio; assay: Toxicity against zebrafish embryo assessed as head malformation at 5 ug/ml measured at 96 hrs post fertilization by inverted microscopic analysis; type: organism-based; details: in vivo
[11] = system: Candida albicans; assay: Antibiofilm activity against Candida albicans ATCC 10231 assessed as disruption of preformed biofilm after 24 hrs by concanavalin A-FITC-staining based fluorescence microscopic analysis; type: functional
[12] = system: MRC5; assay: Cytotoxicity against human MRC5 cells after 48 hrs by MTT assay; type: cell-based; details: MRC5, 48 h
[13] = system: Pichia kudriavzevii; assay: Antifungal activity against Candida krusei ATCC 34135 by broth dilution method; type: functional
[14] = organism: Danio rerio; assay: Toxicity against zebrafish embryo assessed as effect on otoliths at 10 ug/ml measured at 96 hrs post fertilization by inverted microscopic analysis; type: organism-based; details: in vivo
[15] = organism: Danio rerio; assay: Toxicity against zebrafish embryo assessed as teratogenic embryos at 2.5 ug/ml measured at 96 hrs post fertilization by inverted microscopic analysis; type: organism-based; details: in vivo
[16] = system: Danio rerio; assay: Toxicity against zebrafish embryo assessed as yolk edema at 10 ug/ml measured at 96 hrs post fertilization by inverted microscopic analysis; type: organism-based; details: in vivo
[17] = organism: Danio rerio; assay: Toxicity against zebrafish embryo assessed as effect on otoliths at 2.5 ug/ml measured at 96 hrs post fertilization by inverted microscopic analysis; type: organism-based; details: in vivo
[18] = Toxicity against zebrafish embryo measured at 96 hrs post fertilization by inverted microscopic analysis; type: organism-based, Danio rerio; details: zebrafish embryos
[19] = organism: Danio rerio; assay: Toxicity against zebrafish embryo assessed as teratogenic embryos at 50 ug/ml measured at 96 hrs post fertilization by inverted microscopic analysis; type: organism-based; details: in vivo
[20] = organism: Danio rerio; assay: Toxicity against zebrafish embryo assessed as normal embryos at 2.5 ug/ml measured at 96 hrs post fertilization by inverted microscopic analysis; type: organism-based; details: in vivo
[21] = organism: Danio rerio; assay: Toxicity against zebrafish embryo assessed as head malformation at 2.5 ug/ml measured at 96 hrs post fertilization by inverted microscopic analysis; type: organism-based; details: in vivo
[22] = system: Candida parapsilosis; assay: Antibiofilm activity against Candida parapsilosis C27 assessed as disruption of preformed biofilm after 24 hrs by concanavalin A-FITC-staining based fluorescence microscopic analysis; type: functional
[23] = organism: Danio rerio; assay: Toxicity against zebrafish embryo assessed as teratogenic embryos at 5 ug/ml measured at 96 hrs post fertilization by inverted microscopic analysis; type: organism-based; details: in vivo
[24] = Toxicity against zebrafish embryo assessed as dead embryos at 25 ug/ml measured at 96 hrs post fertilization by inverted microscopic analysis; type: organism-based, Danio rerio; details: read-out: Activity
[25] = organism: Danio rerio; assay: Toxicity against zebrafish embryo assessed as unhatched embryos at 10 ug/ml measured at 96 hrs post fertilization by inverted microscopic analysis; type: organism-based; details: in vivo
[26] = system: Aspergillus fumigatus; assay: Antifungal activity against Aspergillus fumigatus ATCC 13073 by broth dilution method; type: functional
[27] = system: Danio rerio; assay: Toxicity against zebrafish embryo assessed as pericardial edema at 2.5 ug/ml measured at 96 hrs post fertilization by inverted microscopic analysis; type: organism-based; details: in vivo
[28] = system: Candida parapsilosis; assay: Antifungal activity against Candida parapsilosis C27 by broth dilution method; type: functional; details: Lodderomyces parapsilosis
[29] = organism: Danio rerio; assay: Toxicity against zebrafish embryo assessed as skeletal deformities at 2.5 ug/ml measured at 96 hrs post fertilization by inverted microscopic analysis; type: organism-based; details: in vivo
[30] = system: Candida albicans; assay: Antifungal activity against Candida albicans CA5 assessed as fungal growth at sub-MIC measured after 24 hrs by time-kill dependence-based spectrophotometric analysis relative to DMSO control; type: functional, organism-based
[31] = organism: Danio rerio; assay: Toxicity against zebrafish embryo assessed as head malformation at 10 ug/ml measured at 96 hrs post fertilization by inverted microscopic analysis; type: organism-based; details: in vivo
[32] = Induction of membrane damage in PC/PS/E liposome assessed as calcein release at MIC after 30 mins by fluorescence-based liposome leakage assay; type: functional
[33] = organism: Danio rerio; assay: Toxicity against zebrafish embryo assessed as teratogenic embryos at 10 ug/ml measured at 96 hrs post fertilization by inverted microscopic analysis; type: organism-based; details: in vivo
[34] = organism: Danio rerio; assay: Toxicity against zebrafish embryo assessed as effect on blood circulation at 2.5 ug/ml measured at 96 hrs post fertilization by inverted microscopic analysis; type: organism-based; details: in vivo
[35] = organism: Danio rerio; assay: Toxicity against zebrafish embryo assessed as effect on tail tip at 2.5 ug/ml measured at 96 hrs post fertilization by inverted microscopic analysis; type: organism-based; details: in vivo
[36] = Toxicity against zebrafish embryo assessed as dead embryos at 50 ug/ml measured at 96 hrs post fertilization by inverted microscopic analysis; type: organism-based, Danio rerio; details: read-out: Activity
[37] = organism: Danio rerio; assay: Toxicity against zebrafish embryo assessed as normal embryos at 50 ug/ml measured at 96 hrs post fertilization by inverted microscopic analysis; type: organism-based; details: in vivo
[38] = organism: Danio rerio; assay: Toxicity against zebrafish embryo assessed as skeletal deformities at 5 ug/ml measured at 96 hrs post fertilization by inverted microscopic analysis; type: organism-based; details: in vivo
[39] = organism: Danio rerio; assay: Toxicity against zebrafish embryo assessed as growth retardation at 2.5 ug/ml measured at 96 hrs post fertilization by inverted microscopic analysis; type: organism-based; details: in vivo
[40] = system: Danio rerio; assay: Toxicity against zebrafish embryo assessed as yolk edema at 5 ug/ml measured at 96 hrs post fertilization by inverted microscopic analysis; type: organism-based; details: in vivo
[41] = organism: Danio rerio; assay: Toxicity against zebrafish embryo assessed as effect on blood circulation at 5 ug/ml measured at 96 hrs post fertilization by inverted microscopic analysis; type: organism-based; details: in vivo
[42] = organism: Danio rerio; assay: Toxicity against zebrafish embryo assessed as growth retardation at 5 ug/ml measured at 96 hrs post fertilization by inverted microscopic analysis; type: organism-based; details: in vivo
[43] = organism: Danio rerio; assay: Toxicity against zebrafish embryo assessed as effect on notochord at 2.5 ug/ml measured at 96 hrs post fertilization by inverted microscopic analysis; type: organism-based; details: in vivo
[44] = Toxicity against zebrafish embryo assessed as dead embryos at 5 ug/ml measured at 96 hrs post fertilization by inverted microscopic analysis; type: organism-based, Danio rerio; details: read-out: Activity
[45] = organism: Danio rerio; assay: Toxicity against zebrafish embryo assessed as effect on otoliths at 5 ug/ml measured at 96 hrs post fertilization by inverted microscopic analysis; type: organism-based; details: in vivo
[46] = system: Pichia kudriavzevii; assay: Antibiofilm activity against Pichia kudriavzevii ATCC 34135 assessed as disruption of preformed biofilm after 24 hrs by concanavalin A-FITC-staining based fluorescence microscopic analysis; type: functional
[47] = Toxicity against zebrafish embryo assessed as dead embryos at 10 ug/ml measured at 96 hrs post fertilization by inverted microscopic analysis; type: organism-based, Danio rerio; details: read-out: Activity

Cc1ccc(-c2ccc(/C=N/NC(=N)N)s2)cc1.Cl
MIC [1]: 0.5 µg/mL
Activity [2]: 100%
Activity [3]: 0%
Activity [4]: 100%
Activity [5]: 0%
Activity [6]: 100%
Activity [7]: 0%
Activity [8]: 0%
Activity [9]: 0%
Activity [10]: 100%
MBEC [11]: 125 µg/mL
IC50 [12]: 2.5 µg/mL
MIC [13]: 3.12 µg/mL
Activity [14]: 100%
Activity [15]: 6.67%
Activity [16]: 0%
Activity [17]: 0%
LC50 at 96 h [18]: 8.2 µg/mL
Activity [19]: 0%
Activity [20]: 56.67%
Activity [21]: 0%
MBEC [22]: 125 µg/mL
Activity [23]: 80%
mortality at 96 h, 25 ug/ml [24]: 100%
Activity [25]: 0%
MIC [26]: 6.25 µg/mL
Activity [27]: 7.41%
MIC [28]: 3.9 µg/mL
Activity [29]: 0%
Activity [30]: inactive
Activity [31]: 100%
Activity [32]: 7%
Activity [33]: 50%
Activity [34]: 0%
Activity [35]: 0%
mortality at 96 h, 50 ug/ml [36]: 100%
Activity [37]: 0%
Activity [38]: 0%
Activity [39]: 0%
Activity [40]: 0%
Activity [41]: 0%
Activity [42]: 0%
Activity [43]: 0%
mortality at 96 h, 5 ug/ml [44]: 20%
Activity [45]: 62.5%
MBEC [46]: 250 µg/mL
mortality at 96 h, 10 ug/ml [47]: 50%
